Experiment [1] concerns the target T1, human N-type Ca channel (Homo sapiens, UniProt Q00975). Kind of experiment: Electrophysiological response, QPatch (depolarization -80 mV to +20 mV). As to conditions: for inhibition at 10 µM: read-out: Qpatch Pulse=1 (percent inhibition).
Protocol: The recombinant cell line described above was used in the measurement of electrophysiological properties with QPatch (Sophion). Cells were maintained in culture as mentioned above. Prior to the experiment, the flasks were moved to 30 °C and incubated for 48-72 hrs. On the day of assaying, cells were detached and harvested. The cell pellet was re-suspended in SMF4HEK (HyClone)/25mM HEPS at 2-5 million/ mL and placed on the QStirrer of the QPatch for 30-60 min prior to the start of the assay. […] Microtiter-Plate/Reference Buffer contained 140 mM TEA-Cl, 10mM BaCl2, 0.8 mM MgCl2, 10 mM HEPES pH ∼7.4 adjusted with TEA-OH/HCl, and ∼300mOsm. Cells were transferred to a QPatch 48 plate and gigaseal was formed. The plate was perfused with intracellular and extracellular buffer. […] In brief, cells were depolarized from resting potential of -80 mV to +20 mV and current was recorded. Data was plotted as percent inhibition vs concentration of the compound and IC50 values were generated using Graphpad Prism non-linear regression analysis.
Experiment [2] concerns the target T1, human N-type Ca channel. The experiment is described as follows: Calcium influx assay (FDSS), KCl depolarization, Fluo8 dye. More on the design: host or cells: HEK 293. Format: cell-based. As to conditions: HEK 293 cells expressing human N-type Ca channel; 100 mM KCl; read-out: N Type IC50 Data FDSS. The method, then:
All cell culture reagents were procured from HyClone and other reagents were from Fisher. Recombinant HEK 293 cells expressing human N-type Ca channel (Millipore) were maintained in DMEM F12 containing 10% FBS and selection antibiotics at 37 °C in 5% CO2.
Cells were incubated at 30 °C in 5% CO2 overnight. The medium was removed and cells were loaded with Fluo8 dye (AAT Bioquest) at 37 °C and 30 °C, 30 min each in darkness. Cells were washed four times with wash buffer (16 mM Herep pH 7.2, 2 mM CaCl2, 1 mM MgCl2, 5 mM glucose, 140 mM choline chloride and 2 mM KCl) leaving 15 µL buffer after the last wash. Compounds of Formula (I), serially diluted, were added to the cell plate. The plates were incubated in darkness for 15 min. Cells were depolarized with 100 mM KCl and Ca influx was measured.

Where [3] appears, read: N Type IC50 Data Qpatch Pulse=1, Pulse=1, concentration range 0.3-10 µM.
Where [4] appears, read: N Type IC50 Data Qpatch Pulse=15, Pulse=15, concentration range 0.3-10 µM.
The mark [5] stands for this setting: N Type IC50 Data Qpatch Pulse=1, Pulse=1, concentration range 0.01-1 µM.
Where [6] appears, read: read-out: N Type IC50 Data Qpatch Pulse=1, Pulse=1, concentration range 0.01-1 µM.
[7] abbreviates: read-out: N Type IC50 Data Qpatch Pulse=15, Pulse=15, concentration range 0.01-1 µM.

Bounds are passed on as bounds.

T1 sequence (Q00975 whole entry): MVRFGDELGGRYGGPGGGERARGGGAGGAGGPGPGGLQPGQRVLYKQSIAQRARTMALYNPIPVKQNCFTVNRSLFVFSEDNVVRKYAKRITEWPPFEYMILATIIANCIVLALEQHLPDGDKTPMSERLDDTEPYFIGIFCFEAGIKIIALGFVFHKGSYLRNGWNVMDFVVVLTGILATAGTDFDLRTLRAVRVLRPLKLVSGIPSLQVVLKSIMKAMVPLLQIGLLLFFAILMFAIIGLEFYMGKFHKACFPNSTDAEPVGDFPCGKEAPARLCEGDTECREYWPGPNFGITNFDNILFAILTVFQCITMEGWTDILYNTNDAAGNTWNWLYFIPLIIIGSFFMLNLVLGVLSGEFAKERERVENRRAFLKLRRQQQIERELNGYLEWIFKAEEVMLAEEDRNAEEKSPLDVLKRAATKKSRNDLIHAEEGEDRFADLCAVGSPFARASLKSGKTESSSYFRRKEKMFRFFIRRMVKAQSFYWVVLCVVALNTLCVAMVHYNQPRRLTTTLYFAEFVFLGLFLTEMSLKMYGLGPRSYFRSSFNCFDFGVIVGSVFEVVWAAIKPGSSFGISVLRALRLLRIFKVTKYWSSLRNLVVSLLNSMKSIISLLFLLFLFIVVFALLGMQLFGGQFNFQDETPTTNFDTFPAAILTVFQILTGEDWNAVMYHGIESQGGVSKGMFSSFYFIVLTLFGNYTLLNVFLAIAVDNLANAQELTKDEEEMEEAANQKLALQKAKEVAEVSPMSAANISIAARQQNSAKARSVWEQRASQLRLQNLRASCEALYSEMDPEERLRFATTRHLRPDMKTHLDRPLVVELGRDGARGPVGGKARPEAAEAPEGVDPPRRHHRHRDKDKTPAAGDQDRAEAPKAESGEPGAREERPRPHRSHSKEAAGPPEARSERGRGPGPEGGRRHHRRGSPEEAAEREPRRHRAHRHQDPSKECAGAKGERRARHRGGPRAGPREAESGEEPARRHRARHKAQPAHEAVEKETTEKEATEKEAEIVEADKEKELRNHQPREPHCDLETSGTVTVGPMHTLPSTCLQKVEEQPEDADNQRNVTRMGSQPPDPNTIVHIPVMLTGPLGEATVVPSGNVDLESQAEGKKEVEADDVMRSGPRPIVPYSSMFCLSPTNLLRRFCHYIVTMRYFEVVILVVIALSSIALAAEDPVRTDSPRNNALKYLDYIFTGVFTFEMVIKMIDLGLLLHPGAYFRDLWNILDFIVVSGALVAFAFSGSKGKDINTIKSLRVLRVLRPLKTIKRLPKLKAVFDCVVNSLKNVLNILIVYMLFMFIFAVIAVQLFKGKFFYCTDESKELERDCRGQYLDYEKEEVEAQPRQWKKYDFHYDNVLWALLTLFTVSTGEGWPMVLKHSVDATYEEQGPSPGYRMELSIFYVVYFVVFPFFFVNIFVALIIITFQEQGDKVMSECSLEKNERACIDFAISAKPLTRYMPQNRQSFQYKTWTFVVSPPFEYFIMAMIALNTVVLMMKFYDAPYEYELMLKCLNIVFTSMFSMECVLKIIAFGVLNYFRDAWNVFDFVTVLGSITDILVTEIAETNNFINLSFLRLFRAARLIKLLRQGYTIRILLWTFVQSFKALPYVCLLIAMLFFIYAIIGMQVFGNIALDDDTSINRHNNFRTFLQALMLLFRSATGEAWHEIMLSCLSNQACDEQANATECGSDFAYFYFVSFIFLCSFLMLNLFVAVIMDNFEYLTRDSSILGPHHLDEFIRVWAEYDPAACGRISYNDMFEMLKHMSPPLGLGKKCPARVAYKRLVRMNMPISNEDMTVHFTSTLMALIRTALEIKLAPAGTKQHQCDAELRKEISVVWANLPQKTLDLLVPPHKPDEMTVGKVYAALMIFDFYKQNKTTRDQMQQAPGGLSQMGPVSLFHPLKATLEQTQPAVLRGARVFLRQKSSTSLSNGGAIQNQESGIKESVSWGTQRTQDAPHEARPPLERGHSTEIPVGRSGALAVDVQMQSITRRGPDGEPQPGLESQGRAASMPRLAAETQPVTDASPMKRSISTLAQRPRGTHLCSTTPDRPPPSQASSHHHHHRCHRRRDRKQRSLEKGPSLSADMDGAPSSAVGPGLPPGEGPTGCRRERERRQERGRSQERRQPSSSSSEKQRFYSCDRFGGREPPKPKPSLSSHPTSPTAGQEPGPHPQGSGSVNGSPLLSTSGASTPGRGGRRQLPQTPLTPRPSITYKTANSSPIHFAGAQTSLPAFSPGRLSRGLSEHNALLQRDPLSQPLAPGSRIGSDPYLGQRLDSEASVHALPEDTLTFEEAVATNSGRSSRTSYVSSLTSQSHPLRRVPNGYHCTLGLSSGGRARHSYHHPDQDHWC
T1 sequence (P54284 whole entry partner): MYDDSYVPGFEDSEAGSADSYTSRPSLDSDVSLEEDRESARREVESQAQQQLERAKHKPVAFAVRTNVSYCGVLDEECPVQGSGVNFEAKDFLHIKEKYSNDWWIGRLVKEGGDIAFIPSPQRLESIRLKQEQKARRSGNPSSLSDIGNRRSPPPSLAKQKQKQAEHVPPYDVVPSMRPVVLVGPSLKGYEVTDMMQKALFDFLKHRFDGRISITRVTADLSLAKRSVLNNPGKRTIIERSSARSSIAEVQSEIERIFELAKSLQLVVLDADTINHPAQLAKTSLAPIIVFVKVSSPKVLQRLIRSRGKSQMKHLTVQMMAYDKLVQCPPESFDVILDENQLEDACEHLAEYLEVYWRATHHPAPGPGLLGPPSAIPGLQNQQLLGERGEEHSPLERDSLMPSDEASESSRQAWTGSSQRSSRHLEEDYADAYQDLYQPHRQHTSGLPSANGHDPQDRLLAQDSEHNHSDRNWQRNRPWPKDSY
T1 sequence (P54289 25-956 partner limits assumed): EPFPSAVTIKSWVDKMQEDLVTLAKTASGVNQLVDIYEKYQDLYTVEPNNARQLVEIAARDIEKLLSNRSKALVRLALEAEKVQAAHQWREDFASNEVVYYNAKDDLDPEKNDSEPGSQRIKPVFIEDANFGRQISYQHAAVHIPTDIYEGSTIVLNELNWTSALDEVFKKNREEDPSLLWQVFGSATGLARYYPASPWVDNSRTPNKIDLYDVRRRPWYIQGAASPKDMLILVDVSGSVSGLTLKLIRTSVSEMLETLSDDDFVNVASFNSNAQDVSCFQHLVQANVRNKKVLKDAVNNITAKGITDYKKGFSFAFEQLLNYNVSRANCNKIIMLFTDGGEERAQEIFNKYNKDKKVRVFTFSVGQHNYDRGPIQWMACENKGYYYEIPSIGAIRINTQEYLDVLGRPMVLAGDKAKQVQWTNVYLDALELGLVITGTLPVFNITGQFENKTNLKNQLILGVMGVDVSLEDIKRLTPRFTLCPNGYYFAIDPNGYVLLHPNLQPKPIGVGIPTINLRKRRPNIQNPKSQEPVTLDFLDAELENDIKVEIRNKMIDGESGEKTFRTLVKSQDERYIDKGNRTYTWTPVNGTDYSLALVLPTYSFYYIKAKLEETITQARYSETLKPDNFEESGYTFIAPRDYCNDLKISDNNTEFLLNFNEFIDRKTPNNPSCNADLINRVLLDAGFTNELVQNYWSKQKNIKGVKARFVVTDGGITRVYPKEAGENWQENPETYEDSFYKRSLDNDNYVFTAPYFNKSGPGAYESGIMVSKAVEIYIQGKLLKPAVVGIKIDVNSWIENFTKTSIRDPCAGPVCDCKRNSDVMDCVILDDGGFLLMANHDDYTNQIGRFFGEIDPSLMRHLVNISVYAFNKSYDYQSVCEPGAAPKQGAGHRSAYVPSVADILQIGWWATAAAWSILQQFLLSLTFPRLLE
T1 sequence (P54289 957-1103 partner limits assumed): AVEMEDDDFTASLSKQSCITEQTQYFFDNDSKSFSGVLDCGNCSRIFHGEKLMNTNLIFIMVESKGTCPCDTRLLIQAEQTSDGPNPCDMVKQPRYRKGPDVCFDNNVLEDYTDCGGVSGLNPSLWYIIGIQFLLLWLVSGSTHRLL

For the compound `COc1ncccc1-c1nc(C2(O)CC(C)(C)OC(C)(C)C2)cn1-c1ccc(F)c(F)c1` [Compound 108, 4-(1-(3,4-difluorophenyl)-2-(2-methoxypyridin-3-yl)-1H-imidazol-4-yl)-2,2,6,6-tetramethyltetrahydro-2H-pyran-4-ol], the IC50 at human N-type Ca channel [1] (setting [3]) turned out to be 5800 nM; against human N-type Ca channel [1] (setting [4]), 7400 nM; on human N-type Ca channel [2] it was 394 nM.
Regarding `COc1cccnc1-c1nc(C2CC(C)(C)OC(C)(C)C2)cn1-c1ccc(Cl)c(F)c1` [Compound 19, 2-(1-(4-chloro-3-fluorophenyl)-4-(2,2,6,6-tetramethyltetrahydro-2H-pyran-4-yl)-1H-imidazol-2-yl)-3-methoxypyridine], the 50% inhibitory concentration (IC50) is 966 nM against human N-type Ca channel [1] (setting [5]) and 263 nM on human N-type Ca channel [2]. For the same compound, the inhibition at 1 µM on human N-type Ca channel [1] (read-out: Qpatch Pulse=15 (percent inhibition)) worked out at 28%.
With `CC1(C)CC(c2cn(-c3ccc(Cl)cc3)c(C3CC3)n2)CC(C)(C)O1` [Compound 56, 1-(4-chlorophenyl)-2-cyclopropyl-4-(2,2,6,6-tetramethyltetrahydro-2H-pyran-4-yl)-1H-imidazole], the IC50 on human N-type Ca channel [1] (setting [6]) was > 1000 nM; on human N-type Ca channel [1] (setting [7]) it was > 1000 nM; on human N-type Ca channel [2] it was 1670 nM.
Take `COc1ncccc1-c1nc(C2CC(C)(C)OC(C)(C)C2)cn1-c1ccc(Cl)c(F)c1` [Compound 44, 3-(1-(4-chloro-3-fluorophenyl)-4-(2,2,6,6-tetramethyltetrahydro-2H-pyran-4-yl)-1H-imidazol-2-yl)-2-methoxypyridine]: the IC50 was found to be 2900 nM at human N-type Ca channel [1] (setting [3]), 3080 nM on human N-type Ca channel [1] (setting [4]) and 142 nM at human N-type Ca channel [2].
In the case of `COc1ncccc1-c1nc(C2CC(C)(C)OC(C)(C)C2)cn1-c1ccc(C#N)cc1F` [Compound 76, 3-fluoro-4-(2-(2-methoxypyridin-3-yl)-4-(2,2,6,6-tetramethyltetrahydro-2H-pyran-4-yl)-1H-imidazol-1-yl)benzonitrile], the IC50 on human N-type Ca channel [1] (setting [5]) is > 1000 nM; at human N-type Ca channel [1] (setting [7]), > 1000 nM; on human N-type Ca channel [2], 151 nM.
With `COc1ccccc1-c1nc(C2=CC(C)(C)OC(C)(C)C2)cn1-c1ccc(C#N)c(F)c1` [Compound 126], the inhibition at 10 µM at human N-type Ca channel [1] came to 29%.
`COc1ncncc1-c1nc(C2CC(C)(C)OC(C)(C)C2)cn1-c1ccc(Cl)cc1` [Compound 49, 5-(1-(4-chlorophenyl)-4-(2,2,6,6-tetramethyltetrahydro-2H-pyran-4-yl)-1H-imidazol-2-yl)-4-methoxypyrimidine]: the figures for the IC50 against human N-type Ca channel [1] (setting [5]), at human N-type Ca channel [1] (setting [7]) and at human N-type Ca channel [2] were > 1000 nM, > 1000 nM and 123 nM, respectively.
Turning to `COc1cnccc1-c1nc(C2CC(C)(C)OC(C)(C)C2)cn1-c1ccc(F)c(Cl)c1` [Compound 18, 4-(1-(3-chloro-4-fluorophenyl)-4-(2,2,6,6-tetramethyltetrahydro-2H-pyran-4-yl)-1H-imidazol-2-yl)-3-methoxypyridine], the IC50 amounted to 694 nM at human N-type Ca channel [1] (setting [5]); 376 nM against human N-type Ca channel [1] (N Type IC50 Data Qpatch Pulse=15, Pulse=15, concentration range 0.01-1 µM); 108 nM on human N-type Ca channel [2].
As to `COc1ncccc1-c1nc(C2CC(C)(C)OC(C)(C)C2)cn1-c1ccc(C)c(C#N)c1` [Compound 25, 5-(2-(2-methoxypyridin-3-yl)-4-(2,2,6,6-tetramethyltetrahydro-2H-pyran-4-yl)-1H-imidazol-1-yl)-2-methylbenzonitrile], the IC50 was > 1000 nM on human N-type Ca channel [1] (setting [5]), > 1000 nM at human N-type Ca channel [1] (setting [7]) and 818 nM on human N-type Ca channel [2].
Turning to `COc1ncncc1-c1nc(C2CC(C)(C)OC(C)(C)C2)cn1-c1ccc(C#N)cc1` [Compound 86, 4-(2-(4-methoxypyrimidin-5-yl)-4-(2,2,6,6-tetramethyltetrahydro-2H-pyran-4-yl)-1H-imidazol-1-yl)benzonitrile], the IC50 at human N-type Ca channel [1] (setting [7]) was > 1000 nM; at human N-type Ca channel [2], 1300 nM.
Take `COc1ccccc1-c1nc(C2CC(C)(C)OC(C)(C)C2)cn1-c1ccc(C)cn1` [Compound 6, 2-(2-(2-methoxyphenyl)-4-(2,2,6,6-tetramethyltetrahydro-2H-pyran-4-yl)-1H-imidazol-1-yl)-5-methylpyridine]: the IC50 at human N-type Ca channel [2] is 739 nM.
On to `COc1cccnc1-c1nc(C2CC(C)(C)OC(C)(C)C2)cn1-c1ccc(C#N)cc1` [Compound 12, 4-(2-(3-methoxypyridin-2-yl)-4-(2,2,6,6-tetramethyltetrahydro-2H-pyran-4-yl)-1H-imidazol-1-yl)benzonitrile], for which the inhibition at 10 µM on human N-type Ca channel [1] was 28%. For the same compound, the IC50 on human N-type Ca channel [2] was found to be 630 nM.
Turning to `COc1cccnc1-c1nc(C2(O)CC(C)(C)OC(C)(C)C2)cn1-c1ccc(Cl)cc1` [Compound 104, 4-(1-(4-chlorophenyl)-2-(3-methoxypyridin-2-yl)-1H-imidazol-4-yl)-2,2,6,6-tetramethyltetrahydro-2H-pyran-4-ol], the IC50 on human N-type Ca channel [2] amounted to 464 nM.
`COc1ccccc1-c1nc(C2(O)CC(C)(C)OC(C)(C)C2)cn1-c1ccc(Cl)c(F)c1` [Compound 112, 4-(1-(4-chloro-3-fluorophenyl)-2-(2-methoxyphenyl)-1H-imidazol-4-yl)-2,2,6,6-tetramethyltetrahydro-2H-pyran-4-ol]: the IC50 on human N-type Ca channel [1] (setting [3]) was 2500 nM; against human N-type Ca channel [1] (setting [4]) it was 3000 nM; on human N-type Ca channel [2], 41 nM.
With `COc1ncccc1-c1nc(C2CC(C)(C)OC(C)(C)C2)cn1Cc1cccc(Cl)c1` [Compound 9, 3-(1-(3-chlorobenzyl)-4-(2,2,6,6-tetramethyltetrahydro-2H-pyran-4-yl)-1H-imidazol-2-yl)-2-methoxypyridine], the IC50 on human N-type Ca channel [2] is 793 nM.
For `CCOc1ccc(-n2cc(C3CC(C)(C)OC(C)(C)C3)nc2-c2ccncc2OC)cc1` [Compound 3, 4-(1-(4-ethoxyphenyl)-4-(2,2,6,6-tetramethyltetrahydro-2H-pyran-4-yl)-1H-imidazol-2-yl)-3-methoxypyridine], the results for the half-inhibitory concentration (IC50) on human N-type Ca channel [1] (setting [5]), on human N-type Ca channel [1] (setting [7]) and at human N-type Ca channel [2] were 830 nM, > 1000 nM and 376 nM, respectively.
As for `COc1ccc(-n2cc(C3CC(C)(C)OC(C)(C)C3)nc2-c2ccccc2OC)cc1C#N` [Compound 37, 2-methoxy-5-(2-(2-methoxyphenyl)-4-(2,2,6,6-tetramethyltetrahydro-2H-pyran-4-yl)-1H-imidazol-1-yl)benzonitrile], the IC50 at human N-type Ca channel [1] (setting [6]) was > 1000 nM; on human N-type Ca channel [1] (setting [7]), > 1000 nM; on human N-type Ca channel [2] it was 424 nM.
As for `COc1ncccc1-c1nc(C2(O)CC(C)(C)OC(C)(C)C2)cn1-c1ccc(C#N)cc1` [Compound 115, 4-(4-(4-hydroxy-2,2,6,6-tetramethyltetrahydro-2H-pyran-4-yl)-2-(2-methoxypyridin-3-yl)-1H-imidazol-1-yl)benzonitrite], the IC50 on human N-type Ca channel [2] stood at 731 nM.
`COc1ccccc1-c1nc(C2CC(C)(C)OC(C)(C)C2)cn1Cc1cncnc1` [Compound 100, 5-((2-(2-methoxyphenyl) - 4-(2,2,6,6-tetramethyltetrahydro-2H-pyran-4-yl)-1H-imidazol-1-yl)methyl) pyrimidine]: the IC50 at human N-type Ca channel [2] came to 10000 nM.
As for `COc1cccnc1-c1nc(C2CC(C)(C)OC(C)(C)C2)cn1-c1ccc(F)c(F)c1` [Compound 35, 2-(1-(3,4-difluorophenyl)-4-(2,2,6,6-tetramethyltetrahydro-2H-pyran-4-yl)-1H-imidazol-2-yl)-3-methoxypyridine], the IC50 at human N-type Ca channel [2] came out at 838 nM.
Take `COc1cccnc1-c1nc(C2CC(C)(C)OC(C)(C)C2)cn1-c1ccc(Cl)cc1` [Compound 67, 2-(1-(4-chlorophenyl)-4-(2,2,6,6-tetramethyltetrahydro-2H-pyran-4-yl)-1H-imidazol-2-yl)-3-methoxypyridine]: at human N-type Ca channel [2], the IC50 turned out to be 166 nM.

The values are drawn from patent EP3033337B1, “SUBSTITUTED IMIDAZOLES AS N-TYPE CALCIUM CHANNEL BLOCKERS” (Janssen Pharmaceutica NV, priority 2013, dated 2015).
